# Source: patent US6812239B2, “Method of identification of inhibitors of PDE1C and methods of treatment of diabetes” (Albert Einstein College of Medicine of Yeshiva University, priority 1999, dated 2004)
# Where “and” joins values, the source holds several entries; their conditions need not be identical. Equal values may be shown once. Entries after “also recorded” stand apart in the source; their conditions may differ.
# Experiments:
# βTC3 cells = assay: Insulin release from βTC3 cells by radioimmunoassay; type: cell-based, Mus musculus; conditions: 16.7 mM glucose; for Insulin secretion, % of the insulin content of the cells / Insulin secretion, % of the cellular insulin content: 2 hr; for Effect on glucose induced insulin secretion (in words): 2 hr incubation
# Experimental: The cultured cells are starved for glucose in Hepes buffered Krebs-Ringer solution for 1 hr. Subsequently, 16.7 mM glucose and the potential phosphodiesterase inhibitors are added to the cells in Hepes buffered Krebs-Ringer solution and the cells are incubated for 2 additional hr. Each condition is assayed in triplicate. Insulin content of the supernatant after centrifugation, and of the cells after acid extraction, is determined by a radioimmunoassay. Control samples are treated with no potential inhibitor compound or, for control or calibration purposes, with compounds that will inhibit other PDE isozymes but that are known to lack PDE1C inhibitory activity or, for examining glucose-independent effects of potential inhibitor compound alone.
# Cell Culture, treatments and measurements of insulin secretion. βTC3 cells were cultured as described and early passages were maintained (D'Ambra, R., Surana, M., Efrat, S., Starr, R. G., and Fleischer, N. (1990) Endocrinology 126, 2815-2822). For measurements of insulin secretion cells were plated onto a 12-well culture dishes 3-4 days, and refed 16 hr, prior to the assay. On the experiment day, cells were washed in Hepes-buffered Krebs-Ringer solution, and incubated in this glucose-free solution for 1 hr. Subsequently, 16.7 mM glucose and, when relevant, PDE inhibitors were added to the cells in Hepes-buffered Krebs-Ringer solution and the cells were incubated for 2 additional hr. Each condition was assayed in triplicates. Insulin content of the supernatant after centrifugation, and of the cells after acid extraction, was determined by a radioimmunoassay as described (D'Ambra, R., Surana, M., Efrat, S., Starr, R. G., and Fleischer, N. (1990) Endocrinology 126, 2815-2822).
# Cyclic nucleotide phosphodiesterase inhibitors that augment insulin secretion were identified using used βTC3 insulinoma cells. For measurements of insulin secretion cells were plated onto a 12-well culture dishes 3-4 days, and refed 16 hr, prior to the assay. On the experiment day, cells were washed in Hepes-buffered Krebs-Ringer solution, and incubated in this glucose-free solution for 1 hour. Subsequently, 16.7 mM glucose and, when relevant, phosphodiesterase inhibitors were added to the cells in Hepes-buffered Krebs-Ringer solution and the cells were incubated for 2 additional hours. Each condition was assayed in triplicates. Insulin content of the supernatant after centrifugation, and of the cells after acid extraction, was determined by a radioimmunoassay.
# Peak III PDE4 = assay: cAMP PDE activity of mono-Q FPLC peak III of βTC3 cells; type: biochemical, Mus musculus; conditions: 2.5 μM rolipram, substrate cAMP 1 μM
# Experimental: (§1) Mono-Q-FPLC fractionation of PDE activities. Cells were scraped and homogenized in a buffer containing 50 mM Tris 7.5, 250 mM sucrose, 5 mM MgCl2, 0.2 μg/ml aprotinin, leupeptin and pepstatin, and 1 mM 4-(2-aminoethyl)benzenesulfonyl fluoride. Following a 30 min 150,000 g centrifugation, the supernatant was loaded onto a Pharmacia Mono-Q anion exchange column and PDE activities were fractionated by FPLC along a two step salt gradient. Column buffers were (A) 50 mM Tris 7.5 and (B) 50 mM Tris 7.5, 0.5 M NaCl. The gradient consisted of a 10 min increase to 0.2 M NaCl (20% B), and a 90 min increase to 0.5 M NaCl (100% B). One ml fractions were collected.
# (§2) PDE assays and kinetic measurements. PDE assays were performed in duplicate as described (40). Analysis and plotting of kinetic data was performed by using the computer program kaleidagraph. The contributions of the high and low affinities cGMP PDEs of peak I to total PDE activity of this peak at a given substrate concentration were calculated using the formula: […]
# PDE1C of βTC3 cells = PDE1C of βTC3 cells (Mus musculus, UniProt Q64338); assay: cAMP PDE activity of mono-Q FPLC peak I (PDE1C) of βTC3 cells; type: biochemical; conditions: for IC50: 1 μM cAMP substrate, average ± standard deviation, read-out: IC50 values Peak I PDE1
# Sequence of PDE1C of βTC3 cells (Q64338 151-528 limits assumed): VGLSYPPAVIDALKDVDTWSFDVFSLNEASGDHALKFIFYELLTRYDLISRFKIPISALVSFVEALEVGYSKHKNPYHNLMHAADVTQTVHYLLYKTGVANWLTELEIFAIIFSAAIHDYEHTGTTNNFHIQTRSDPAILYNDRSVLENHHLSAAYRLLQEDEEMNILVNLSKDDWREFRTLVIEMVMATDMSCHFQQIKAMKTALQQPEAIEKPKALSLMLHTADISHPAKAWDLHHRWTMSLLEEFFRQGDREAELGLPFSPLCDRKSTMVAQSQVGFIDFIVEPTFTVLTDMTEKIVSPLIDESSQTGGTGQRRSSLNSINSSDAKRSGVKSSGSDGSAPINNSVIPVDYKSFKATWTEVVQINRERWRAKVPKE
# Experimental: as §1, §2
# [1] = test system: soluble PDE activities of βTC3 cells; assay: Overall PDE activity in inhibitor-treated βTC3 cells; type: cell-based; conditions: Mus musculus
# Text: An estimate for the ability of the inhibitors to permeate and inhibit PDEs within cells was provided by measurements of overall PDE activity in inhibitor-treated cells. These measurements provide an underestimate of the in vivo effects of the inhibitors due to inhibitor dilution, degradation, and release of inhibitor bound to PDEs, that occur during extraction, and are more pronounced in particulate fractions.
# involved PDE families = conditions: cited from earlier work
# PDE1C = conditions: unlike PDE1A and 1B; cited from earlier work
# PDE3 = conditions: Beavo 1988; read-out: IC50 for inhibition of PDE3; cited from earlier work
# [2] = test system: glucose induced insulin secretion; conditions: Parker et al. 1995; cited from earlier work
# [3] = test system: cGMP PDE activities of peak I (PDE1C and cGMP-specific PDE); assay: cGMP PDE activity of mono-Q FPLC peak I of βTC3 cells; type: biochemical, Mus musculus; conditions: 50 μM 8 MM-IBMX
# Experimental: as §1, §2
smiles,measurement,setting,value
"COc1ccc(C2CNC(=O)C2)cc1OC1CCCC1 (stereo not shown) [Rolipram, 4-[3-(cyclopentyloxy)-4-methoxyphenyl]-2-pyrrolidinone]","Insulin secretion, % of the insulin content of the cells","βTC3 cells; over 10^4 fold increase in concentrations, up to 15 μM",7.9-10.7%
same,"Inhibition by Rolipram, peak III",Peak III PDE4,97%
same,"Inhibition by Rolipram, peak III",Peak III PDE4; listed as rolipram,abolished
same,IC50,PDE1C of βTC3 cells,> 100 µM
same,inhibition at 15 µM,"[1]; inhibitor applied to cells at 15 μM, read-out: Inhibition of soluble cAMP PDE activities in inhibitor-treated cells",37%
"CC(C)Cn1c(=O)n(C)c(=O)c2[nH]cnc21 [IBMX, 1-methyl-3-isobutylxanthine]","Insulin secretion, % of the cellular insulin content",βTC3 cells; inhibitor 0.5 mM,8% and 18%
same,"Insulin secretion, % of the cellular insulin content","βTC3 cells; inhibitor 0.5 mM, listed as isobutylmethylxanthine",15.2%
same,IC50 values for the involved PDE families,involved PDE families,low μM range
"CCCOc1ccccc1-c1nc2nn[nH]c2c(=O)[nH]1 [Zaprinast, zaprinast]",Sensitivity of PDE1C to inhibitor (in words),PDE1C,sensitive
same,Effect on glucose induced insulin secretion (in words),βTC3 cells,enhanced glucose induced secretion; also recorded: partial stimulatory effects
same,"Insulin secretion, % of the cellular insulin content",βTC3 cells; inhibitor 0.5 mM,6.2%
same,IC50,PDE1C of βTC3 cells,4.5 µM
"Cc1[nH]c(=O)c(C#N)cc1-c1ccncc1 [Milrinone, 1,6-dihydro-2-methyl-6-oxo-(3,4′-bipyridine)-5-carbonitrile]",IC50,PDE3,0.3 µM
same,Effect on glucose induced insulin secretion (in words),βTC3 cells,did not affect insulin secretion
same,IC50,PDE1C of βTC3 cells,> 100 µM
"CCCCOc1cc(CC2CNC(=O)N2)ccc1OC (stereo not shown) [RO20-1724, 4-(3-butoxy-4-methoxybenzyl)-2-imidazolidinone]",Effect on glucose induced insulin secretion (in words),βTC3 cells,limited effect; also recorded: did not
same,"Insulin secretion, % of the cellular insulin content",βTC3 cells; inhibitor 0.2 mM,9.6%
"CCOC(=O)C1=C[C@]2(CC)CCCN3CCc4c(n1c1ccccc41)[C@@H]32 [Vinpocetine, eburnamenine-14-carboxylic acid ethyl ester]",Sensitivity of PDE1C to inhibitor (in words),PDE1C,resistant
same,Stimulation of glucose induced insulin secretion (in words),[2],ineffective simulator of glucose induced insulin secretion
same,IC50,PDE1C of βTC3 cells,> 100 µM
COc1cc2c(cc1OC)-c1c/c(=N\c3c(C)cc(C)cc3C)n(C)c(=O)n1CC2 [trequinsin],Effect on glucose induced insulin secretion (in words),βTC3 cells,no effect; also recorded: did not
same,"Insulin secretion, % of the cellular insulin content",βTC3 cells; inhibitor 30 nM,7%
"COCc1nc2c([nH]1)c(=O)n(C)c(=O)n2CC(C)C [8 MM-IBMX, 8-methoxymethyl-1-methyl-3-(2-methylpropyl)xanthine]",Effect on glucose induced insulin secretion (in words),βTC3 cells,strongly augmented insulin secretion; also recorded: dose dependent augmentation of insulin secretion
same,Effect on glucose induced insulin secretion (in words),βTC3 cells; listed as 8-methoxymethyl-isobutylmethylxanthine,dose dependent augmentation of insulin secretion
same,"Insulin secretion, % of the cellular insulin content",βTC3 cells; inhibitor 0.5 mM,17.2%
same,"Insulin secretion, % of the insulin content of the cells",βTC3 cells; inhibitor […],9.3%
same,IC50,PDE1C of βTC3 cells,7.5 µM
same,inhibition at 50 µM,"PDE1C of βTC3 cells; 50 μM 8 MM-IBMX, substrate cAMP 0.5 μM",80%
same,"Inhibition by 8 MM-IBMX, peak I",[3]; substrate cGMP 0.1 μM,82%
same,"Inhibition by 8 MM-IBMX, peak I",[3]; substrate cGMP 10 μM,57%
same,inhibition at 500 µM,"[1]; inhibitor applied to cells at 0.5 mM, read-out: Inhibition of soluble cGMP PDE activities in inhibitor-treated cells",30%
